Experimental findings from US10004701B2, “Methods and compositions for treating infection” (UNIVERSITY OF ROCHESTER, priority 2012, dated 2018) are described below.

SMILES strings stand for the structures. Where a name gives a salt, the structure may show the parent alone. Read-outs that look alike come from different tables or passages of the source.

Assay in all cases: AK assay 384-well format, Prestwick library screening
The subject of one test is K. pneumoniae. It counts as cell-based, Klebsiella pneumoniae. The settings on record: 50 μM final drug concentration; for fold induction at 50 µM: Klebsiella pneumoniae, 3 h.
The next test concerns E. coli. It counts as cell-based, Escherichia coli. The settings on record: 50 μM final drug concentration; for fold induction at 50 µM: Escherichia coli, 3 h.
Another test has as its system E. faecium. It counts as cell-based, Enterococcus faecium. The settings on record: 50 μM final drug concentration; for fold induction at 50 µM: Enterococcus faecium, 3 h.
In test [1] the test system is A. baumannii strain 98-37-09. It counts as cell-based, Acinetobacter baumannii. The settings on record: 50 μM final drug concentration; for fold induction at 50 µM: Acinetobacter baumannii, 983709, 3 h.
Another test deals with E. cloacae. It counts as cell-based, Enterobacter cloacae. The settings on record: 50 μM final drug concentration; for fold induction at 50 µM: Enterobacter cloacae, 3 h.
A further test concerns P. aeruginosa. It counts as cell-based, Pseudomonas aeruginosa. The settings on record: 50 μM final drug concentration; for fold induction at 50 µM: Pseudomonas aeruginosa, 3 h.
The test system of test [2] is S. aureus strain USA300-0114. It counts as cell-based, Staphylococcus aureus. The settings on record: 50 μM final drug concentration; for fold induction at 50 µM: Staphylococcus aureus, USA300, 3 h.
Where [3] appears, read: planktonic, cutoff for positive-scoring molecules 3-fold increase.
The mark [4] stands for this setting: planktonic, cutoff for positive-scoring molecules 3-fold increase, read-out: AK-based Prestwick Library Screening Results, K. pneumoniae (fold increase in extracellular AK activity).
Setting [5] is: planktonic, cutoff for positive-scoring molecules 3-fold increase, read-out: AK-based Prestwick Library Screening Results, E. coli (fold increase in extracellular AK activity).
The mark [6] stands for this setting: planktonic, cutoff for positive-scoring molecules 3-fold increase, read-out: AK-based Prestwick Library Screening Results, E. faecium (fold increase in extracellular AK activity).
[7] abbreviates: planktonic, cutoff for positive-scoring molecules 3-fold increase, read-out: AK-based Prestwick Library Screening Results, A. baumannii (fold increase in extracellular AK activity).
Where [8] appears, read: planktonic, cutoff for positive-scoring molecules 3-fold increase, read-out: AK-based Prestwick Library Screening Results, E. cloacae (fold increase in extracellular AK activity).
Setting [9] is: planktonic, cutoff for positive-scoring molecules 3-fold increase, read-out: AK-based Prestwick Library Screening Results, P. aeruginosa (fold increase in extracellular AK activity).
Setting [10] is: planktonic, cutoff for positive-scoring molecules 3-fold increase, read-out: AK-based Prestwick Library Screening Results, S. aureus (fold increase in extracellular AK activity).
The mark [11] stands for this setting: cutoff for positive-scoring molecules 3-fold increase.

For the compound `CN1[C@@H]2CC[C@H]1C[C@@H](O)C2` [Tropine], the fold induction at 50 µM in the test with K. pneumoniae (planktonic K. pneumoniae, […], read-out: AK-based Prestwick library screening result, K. pneumoniae (fold increase in extracellular AK activity)) was 0.8; in the test with E. coli (planktonic E. coli, […], read-out: AK-based Prestwick library screening result, E. coli (fold increase in extracellular AK activity)) it was 0.9; with E. faecium (planktonic E. faecium, […], read-out: AK-based Prestwick library screening result, E. faecium (fold increase in extracellular AK activity)), 0.9; in test [1] (planktonic A. baumannii, […], read-out: AK-based Prestwick library screening result, A. baumannii (fold increase in extracellular AK activity)), 0.8; in the test with E. cloacae (planktonic E. cloacae, […], read-out: AK-based Prestwick library screening result, E. cloacae (fold increase in extracellular AK activity)), 1.2; with P. aeruginosa (planktonic P. aeruginosa, […], read-out: AK-based Prestwick library screening result, P. aeruginosa (fold increase in extracellular AK activity)), 0.8. Moreover, the fold induction at 50 µM in test [2] (planktonic S. aureus, […], read-out: AK-based Prestwick library screening result, S. aureus (fold increase in extracellular AK activity)) stood at 0.7.

Turning to `CN1[C@@H]2CC[C@H]1C[C@@H](OC(=O)c1c[nH]c3ccccc13)C2` [Tropisetron HCl], the fold induction at 50 µM came out at 0.8 in the test with K. pneumoniae (planktonic, cutoff for positive 3-fold increase, read-out: AK-based Prestwick Library Screening Results, K. pneumoniae (fold increase in extracellular AK activity)); 1.1 in the test on E. coli (planktonic, cutoff for positive 3-fold increase, read-out: AK-based Prestwick Library Screening Results, E. coli (fold increase in extracellular AK activity)); 1 with E. faecium (planktonic, cutoff for positive 3-fold increase, read-out: AK-based Prestwick Library Screening Results, E. faecium (fold increase in extracellular AK activity)); 1.3 in test [1] (planktonic, cutoff for positive 3-fold increase, read-out: AK-based Prestwick Library Screening Results, A. baumannii (fold increase in extracellular AK activity)); 1.3 with E. cloacae (planktonic, cutoff for positive 3-fold increase, read-out: AK-based Prestwick Library Screening Results, E. cloacae (fold increase in extracellular AK activity)); 1.1 with P. aeruginosa (planktonic, cutoff for positive 3-fold increase, read-out: AK-based Prestwick Library Screening Results, P. aeruginosa (fold increase in extracellular AK activity)). The fold induction at 50 µM in test [2] (planktonic, cutoff for positive 3-fold increase, read-out: AK-based Prestwick Library Screening Results, S. aureus (fold increase in extracellular AK activity)) was 0.9.

As for `COc1cc2c3cc1Oc1cc(ccc1O)C[C@@H]1c4c(cc(OC)c(O)c4Oc4ccc(cc4)C[C@@H]3N(C)CC2)CC[N+]1(C)C.Cl.O.O.O.O.O.[Cl-]` [Tubocurarine chloride pentahydrate (+)], the “AK-based Prestwick Library Screening Results: K. pneumoniae (increase in extracellular AK activity)” value in the test on K. pneumoniae (planktonic K. pneumoniae, 384-well, […]) turned out to be 0.6. For the same compound, in the test with E. coli (planktonic E. coli, 384-well, […]), the “AK-based Prestwick Library Screening Results: E. coli (increase in extracellular AK activity)” value worked out at 0.7. In the test on E. faecium (planktonic E. faecium, 384-well, […]), the “AK-based Prestwick Library Screening Results: E. faecium (increase in extracellular AK activity)” value came out at 0.9. For the same compound, the “AK-based Prestwick Library Screening Results: A. baumannii (increase in extracellular AK activity)” value in test [1] (planktonic A. baumannii, 384-well, […]) was determined as 0.7. For the same compound, the “AK-based Prestwick Library Screening Results: E. cloacae (increase in extracellular AK activity)” value in the test with E. cloacae (planktonic E. cloacae, 384-well, […]) stood at 0.6. Moreover, in the test on P. aeruginosa (planktonic P. aeruginosa, 384-well, […]), the “AK-based Prestwick Library Screening Results: P. aeruginosa (increase in extracellular AK activity)” value came to 0.6. Besides, in test [2] (planktonic S. aureus, 384-well, […]), the “AK-based Prestwick Library Screening Results: S. aureus (increase in extracellular AK activity)” value came to 0.5.

As to `CO[C@@H]1C=C2CCN(C)[C@@H]2C2c3cc4c(cc3C(=O)OC21)OCO4.O=[N+]([O-])O` (some centres unmarked) [Ungerine nitrate], the “AK-based Prestwick Library Screening Results, K. pneumoniae (fold increase in extracellular AK activity)” value in the test on K. pneumoniae (setting [3]) was 1.0. The “AK-based Prestwick Library Screening Results, E. coli (fold increase in extracellular AK activity)” value with E. coli (setting [3]) is reported as 1.3. Moreover, the “AK-based Prestwick Library Screening Results, E. faecium (fold increase in extracellular AK activity)” value in the test with E. faecium (setting [3]) stood at 1.0. Besides, the “AK-based Prestwick Library Screening Results, A. baumannii (fold increase in extracellular AK activity)” value in test [1] (setting [3]) worked out at 1.1. Besides, the “AK-based Prestwick Library Screening Results, E. cloacae (fold increase in extracellular AK activity)” value with E. cloacae (setting [3]) turned out to be 1.4. In addition, the “AK-based Prestwick Library Screening Results, P. aeruginosa (fold increase in extracellular AK activity)” value in the test on P. aeruginosa (setting [3]) is 1.1. Besides, the “AK-based Prestwick Library Screening Results, S. aureus (fold increase in extracellular AK activity)” value in test [2] (setting [3]) is listed as 1.2.

With `COc1ccccc1N1CCN(CCCNc2cc(=O)n(C)c(=O)n2C)CC1` [Urapidil hydrochloride], the fold induction at 50 µM in the test on K. pneumoniae (setting [4]) stood at 0.7; in the test on E. coli (setting [5]) it was 1; in the test with E. faecium (setting [6]), 0.9; in test [1] (setting [7]) it was 1; in the test on E. cloacae (setting [8]), 1.1; in the test with P. aeruginosa (setting [9]), 1. The fold induction at 50 µM in test [2] (setting [10]) was found to be 0.9.

In the case of `C[C@H](CCC(=O)O)[C@H]1CC[C@H]2[C@@H]3[C@@H](O)C[C@@H]4C[C@H](O)CC[C@]4(C)[C@H]3CC[C@]12C` [Urosiol], the “AK-based Prestwick Library Screening Results, K. pneumoniae (fold increase in extracellular AK activity)” value in the test with K. pneumoniae (setting [11]) turned out to be 1.0. Also, the “AK-based Prestwick Library Screening Results, E. coli (fold increase in extracellular AK activity)” value in the test on E. coli (setting [11]) was found to be 1.2. Besides, the “AK-based Prestwick Library Screening Results, E. faecium (fold increase in extracellular AK activity)” value in the test on E. faecium (setting [11]) was determined as 1.0. Moreover, the “AK-based Prestwick Library Screening Results, A. baumannii (fold increase in extracellular AK activity)” value in test [1] (setting [11]) worked out at 1.3. In addition, the “AK-based Prestwick Library Screening Results, E. cloacae (fold increase in extracellular AK activity)” value with E. cloacae (setting [11]) was found to be 1.4. Moreover, the “AK-based Prestwick Library Screening Results, P. aeruginosa (fold increase in extracellular AK activity)” value in the test on P. aeruginosa (setting [11]) is 1.2. Also, the “AK-based Prestwick Library Screening Results, S. aureus (fold increase in extracellular AK activity)” value in test [2] (setting [11]) turned out to be 1.2.

Take `C[C@H]1[C@H](C)CC[C@]2(C(=O)O)CC[C@]3(C)C(=CC[C@@H]4[C@@]5(C)CC[C@H](O)C(C)(C)[C@@H]5CC[C@]43C)[C@H]12` [Ursolic acid]: the fold induction at 50 µM with K. pneumoniae (384-well format, cutoff for positive-scoring molecules 3-fold increase, read-out: AK-based Prestwick Library Screening Results, K. pneumoniae (increase in extracellular AK activity)) was 0.4; with E. coli (384-well format, cutoff for positive-scoring molecules 3-fold increase, read-out: AK-based Prestwick Library Screening Results, E. coli (increase in extracellular AK activity)), 0.4; in the test on E. faecium (384-well format, cutoff for positive-scoring molecules 3-fold increase, read-out: AK-based Prestwick Library Screening Results, E. faecium (increase in extracellular AK activity)), 2.8; in test [1] (384-well format, cutoff for positive-scoring molecules 3-fold increase, read-out: AK-based Prestwick Library Screening Results, A. baumannii (increase in extracellular AK activity)) it was 0.5; with E. cloacae (384-well format, cutoff for positive-scoring molecules 3-fold increase, read-out: AK-based Prestwick Library Screening Results, E. cloacae (increase in extracellular AK activity)), 0.5; in the test on P. aeruginosa (384-well format, cutoff for positive-scoring molecules 3-fold increase, read-out: AK-based Prestwick Library Screening Results, P. aeruginosa (increase in extracellular AK activity)), 0.4. Also, in test [2] (384-well format, cutoff for positive-scoring molecules 3-fold increase, read-out: AK-based Prestwick Library Screening Results, S. aureus (increase in extracellular AK activity)), the fold induction at 50 µM stood at 0.1.

For `Nc1ncnc2c1ncn2[C@@H]1O[C@H](CO)[C@@H](O)[C@@H]1O` [Vidarabine], the fold induction at 50 µM with K. pneumoniae (setting [4]) turned out to be 0.7; with E. coli (setting [5]) it was 1.1; in the test with E. faecium (setting [6]) it was 1.1; in test [1] (setting [7]), 1; in the test on E. cloacae (setting [8]), 1.8; in the test with P. aeruginosa (setting [9]), 1. Moreover, the fold induction at 50 µM in test [2] (setting [10]) is 1.5.
